Results: ChEMBL document CHEMBL1201862, “PubChem BioAssay data set” (2004)
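Five compound concentrations were applied to cells in 96-well plates for 48 hours; endpoints were derived by simple linear interpolation of the resulting dose-response curve. GI50 marks 50% less growth.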 Activity calls are given as the source filed them. Rule as the data show it: active = GI50 up to about 1.1 µM and inactive = higher.

Columns and labels:
Assay in all cases: NCI tumour cell line growth inhibition, 48 h
OVCAR-3 = system: OVCAR-3
Malme-3M = system: Malme-3M
MOLT-4 = system: MOLT-4
SN12C = system: SN12C
MCF7 = system: MCF7
SK-OV-3 = system: SK-OV-3
DU-145 = system: DU-145
EKVX = system: EKVX
HCT-15 = system: HCT-15
NCI-H23 = system: NCI-H23
COLO 205 = system: COLO 205
SK-MEL-28 = system: SK-MEL-28
SW-620 = system: SW-620
UO-31 = system: UO-31
OVCAR-8 = system: OVCAR-8
PC-3 = system: PC-3
A498 = system: A498
SK-MEL-5 = system: SK-MEL-5
OVCAR-4 = system: OVCAR-4
KM12 = system: KM12

Row | Structure (SMILES) | GI50 (OVCAR-3) | GI50 (Malme-3M) | GI50 (MOLT-4) | GI50 (SN12C) | GI50 (MCF7) | GI50 (SK-OV-3) | GI50 (DU-145) | GI50 (EKVX) | GI50 (HCT-15) | GI50 (NCI-H23) | GI50 (COLO 205) | GI50 (SK-MEL-28) | GI50 (SW-620) | GI50 (UO-31) | GI50 (OVCAR-8) | GI50 (PC-3) | GI50 (A498) | GI50 (SK-MEL-5) | GI50 (OVCAR-4) | GI50 (KM12)
1 | O=S(=O)(F)Cc1ccccc1 [PHENYLMETHYLSULFONYLFLUORIDE] | > 100 µM (inactive) | 0.486 µM (active) | > 100 µM (inactive) | > 100 µM (inactive) | > 100 µM (inactive) | > 100 µM (inactive) | > 100 µM (inactive) | > 100 µM (inactive) | > 100 µM | > 100 µM (inactive) | > 100 µM (inactive) | > 100 µM (inactive) | > 100 µM (inactive) | > 100 µM (inactive) | > 100 µM (inactive) | > 100 µM (inactive) | > 100 µM (inactive) | > 100 µM (inactive) | > 100 µM (inactive) | > 100 µM (inactive)
2 | CSC1NC(c2ccc(Cl)cc2)=C(C#N)C(=O)N1C1OCC(OC(C)=O)C(OC(C)=O)C1OC(C)=O (stereo not given) | > 100 µM (inactive) | > 100 µM (inactive) | 8.24 µM (inactive) | 45.1 µM (inactive) | > 100 µM (inactive) | > 100 µM (inactive) | > 100 µM (inactive) | > 100 µM (inactive) | 62.1 µM | > 100 µM (inactive) | > 100 µM (inactive) | > 100 µM (inactive) | > 100 µM (inactive) | 53.3 µM (inactive) | > 100 µM (inactive) | > 100 µM (inactive) | 34.8 µM (inactive) | 81.1 µM (inactive) | > 100 µM (inactive) | > 100 µM (inactive)
3 | O=C(OC(=C(c1ccccc1)c1ccccc1)N1CCCC1=S)C(c1ccccc1)c1ccccc1 | 7.6 µM (inactive) | > 10 µM (inactive) | 5.01 µM (inactive) | > 10 µM (inactive) | 7.67 µM (inactive) | 9.18 µM (inactive) | > 10 µM (inactive) | > 10 µM (inactive) | 4.13 µM | 4.23 µM (inactive) | 2.21 µM (inactive) | > 10 µM (inactive) | > 10 µM (inactive) | > 10 µM (inactive) | 7.96 µM (inactive) | 3.24 µM (inactive) | 8.63 µM (inactive) | > 10 µM (inactive) | 8.83 µM (inactive) | 4.5 µM (inactive)
4 | CC1(C)Oc2ccccc2OC1O (stereo not given) | > 100 µM (inactive) | > 100 µM (inactive) | > 100 µM (inactive) | > 100 µM (inactive) | > 100 µM (inactive) | > 100 µM (inactive) | > 100 µM (inactive) | > 100 µM (inactive) | > 100 µM | > 100 µM (inactive) | > 100 µM (inactive) | > 100 µM (inactive) | > 100 µM (inactive) | > 100 µM (inactive) | > 100 µM (inactive) | > 100 µM (inactive) | > 100 µM (inactive) | > 100 µM (inactive) | > 100 µM (inactive) | > 100 µM (inactive)
5 | CN(C(=O)Cc1cc(Cl)c(Cl)cc1NC(=O)CCCN)[C@H]1CCCC[C@@H]1N1CCCC1 | > 100 µM (inactive) | 17.1 µM (inactive) | 60.8 µM (inactive) | 63.5 µM (inactive) | 20.1 µM (inactive) | 95.5 µM (inactive) | > 100 µM (inactive) | 45.1 µM (inactive) | > 100 µM | > 100 µM (inactive) | 17.9 µM (inactive) | 17.1 µM (inactive) | 28.6 µM (inactive) | > 100 µM (inactive) | > 100 µM (inactive) | 40.3 µM (inactive) | 17.3 µM (inactive) | 16.1 µM (inactive) | 86.3 µM (inactive) | 18.7 µM (inactive)
6 | CC1=C(O)C(=O)C=C2C1=CC=C1[C@@]2(C)CC[C@@]2(C)C3C[C@@H](C)C(=O)[C@@H](O)[C@]3(C)CC[C@]12C (stereo not given in full) | 1.88 µM (inactive) | 1.97 µM (inactive) | 0.745 µM (active) | 2.08 µM (inactive) | 2.77 µM (inactive) | 9.04 µM (inactive) | 1.79 µM (inactive) | 2.08 µM (inactive) | 1.91 µM | 1.97 µM (inactive) | 1.71 µM (inactive) | 1.95 µM (inactive) | 1.24 µM (inactive) | 1.92 µM (inactive) | 2.39 µM (inactive) | 2.02 µM (inactive) | 6.32 µM (inactive) | 3.35 µM (inactive) | 3.32 µM (inactive) | 5.86 µM (inactive)
7 | O=C(NO)c1cccc(OCc2ccc(Br)cc2)c1 | 3.85 µM (inactive) | 2.37 µM (inactive) | 2.03 µM (inactive) | 2.79 µM (inactive) | 2.45 µM (inactive) | 5.21 µM (inactive) | 3.13 µM (inactive) | 5.9 µM (inactive) | 0.991 µM | 3.79 µM (inactive) | 8.11 µM (inactive) | 14.2 µM (inactive) | 6.55 µM (inactive) | 2.77 µM (inactive) | 1.32 µM (inactive) | 5.89 µM (inactive) | 8.93 µM (inactive) | 3.98 µM (inactive) | 5.24 µM (inactive) | 5.4 µM (inactive)
8 | CC(Br)C(=O)NC(CO)C(=O)O (stereo not given) | > 100 µM (inactive) | > 100 µM (inactive) | > 100 µM (inactive) | > 100 µM (inactive) | > 100 µM (inactive) | > 100 µM (inactive) | > 100 µM (inactive) | > 100 µM (inactive) | > 100 µM | > 100 µM (inactive) | > 100 µM (inactive) | > 100 µM (inactive) | > 100 µM (inactive) | > 100 µM (inactive) | > 100 µM (inactive) | > 100 µM (inactive) | > 100 µM (inactive) | > 100 µM (inactive) | > 100 µM (inactive) | > 100 µM (inactive)
